In patent US6846492B2, “Use of phenylethylamine derivatives for the antimicrobial treatment of surfaces” (Ciba Specialty Chemicals Corporation, priority 2000, dated 2005):

What was measured:
Assay type in all cases: cell-based
[1] = system: Pseudomonas aeruginosa CIP A-22 (= PA); test: MIC determination in microtiter plates, Pseudomonas aeruginosa; conditions: Tables 2a/2b, 48 hours at 37° C., ≦20% growth, optical density 620 nm, some approximate values
Protocol: (§1) Determination of the Minimum Inhibitory Concentration (MIC Value) in Microtiter Plates
(§2) Casein/soybean flour peptone bouillon for the preparation of pre-cultures of the test bacteria and yeast.
(§3) Mycological slant agar for the pre-culture of moulds
(§4) The test substances are pre-dissolved in dimethyl sulfoxide (DMSO) and tested in a dilution series of 1:2.
(§5) Bacteria and yeast are cultured overnight in CASO bouillon, the mould is cultured overnight on mycological slant agar, and washed off with 10 ml of 0.85% sodium chloride solution (+0.1% TritonX-100).
(§6) All the test organisms are adjusted to an organism count of 1−5×10^6 CFU/ml using 0.85% sodium chloride solution.
(§7) The test substances are pre-pipetted into microtiter plates in an amount of 8 μl per well.
(§8) Pre-diluted organism suspensions are diluted 1:100 in CASO bouillon (bacteria and yeast) or Sabouraud 2% glucose bouillon (mould) and are added in an amount of 192 μl per well to the test substances.
(§9) The test batches are incubated for 48 hours at 37° C. (bacteria and yeast) or for 5 days at 28° C. (mould).
(§10) After incubation, the growth is evaluated by reference to the turbidity of the test batches (optical density) at 620 nm in a microplate reader.
(§11) One microtiter plate is used for each test organism and substance concentration. All the substances are tested in duplicate.

[2] = system: Candida albicans ATCC 10231 (= CA); test: MIC determination in microtiter plates, Candida albicans; conditions: Tables 2a/2b, 48 hours at 37° C., ≦20% growth, optical density 620 nm, some approximate values
Protocol: as §1, §2, §3, §4, §5, §6, §7, §8, §9, §10, §11

[3] = system: Escherichia coli NCTC 8196 (= EC); test: MIC determination in microtiter plates, Escherichia coli; conditions: Tables 2a/2b, 48 hours at 37° C., ≦20% growth, optical density 620 nm, some approximate values
Protocol: as §1, §2, §3, §4, §5, §6, §7, §8, §9, §10, §11

[4] = system: Staphylococcus hominis DMS 20328 (= SH); test: MIC determination in microtiter plates, Staphylococcus hominis; conditions: Tables 2a/2b, 48 hours at 37° C., ≦20% growth, optical density 620 nm, tested at 120, 60, 30, 15, 7.5 and 3.5 ppm, some approximate
Protocol: as §1, §2, §3, §4, §5, §6, §7, §8, §9, §10, §11

[5] = system: Aspergillus niger ATCC 6275 (= AN); test: MIC determination in microtiter plates, Aspergillus niger; conditions: Tables 2a/2b, 5 days at 28° C., ≦20% growth, optical density 620 nm, some approximate values
Protocol: as §1, §2, §3, §4, §5, §6, §7, §8, §9, §10, §11

Structure (SMILES)	MIC [ppm] PA [1]	MIC [ppm] CA [2]	MIC [ppm] EC [3]	MIC [ppm] SH [4]	MIC [ppm] AN [5]
C=CCCOc1cc(CCN)cc(OCCC=C)c1OCCC=C [Compound 94]	>120 ppm	120 ppm	60 ppm	60 ppm	>120 ppm
CC(C)(C)c1ccc(COc2cc(CCN)cc(OCc3ccc(C(C)(C)C)cc3)c2OCc2ccc(C(C)(C)C)cc2)cc1 [Compound 69]	>120 ppm	>120 ppm	>120 ppm	>120 ppm	>120 ppm
CCCCCCCOc1ccc(CCN)cc1OCCCCCCC [Compound 37]	>120 ppm	30 ppm	30 ppm	3.75 ppm	>120 ppm
NCCc1ccc(OC2CCCC2)c(OC2CCCC2)c1 [Compound 41]	>120 ppm	120 ppm	120 ppm	120 ppm	>120 ppm
CCOC(=O)CCCOc1cc(CCN)cc(OCCCC(=O)OCC)c1OCCCC(=O)OCC [Compound 78]	>120 ppm	>120 ppm	>120 ppm	>120 ppm	>120 ppm
Cc1cccc(COc2ccc(CCN)cc2OCc2cccc(C)c2)c1 [Compound 6]	120 ppm	7.5 ppm	15 ppm	7.5 ppm	120 ppm
NCCc1ccc(OCc2ccccc2C(F)(F)F)c(OCc2ccccc2C(F)(F)F)c1 [Compound 8]	>120 ppm	15 ppm	7.5 ppm	7.5 ppm	>120 ppm
CCCCCCCCCCOc1ccc(CCN)cc1OCCCCCCCCCC [Compound 40]	>120 ppm	>120 ppm	>120 ppm	>120 ppm	>120 ppm
CCOC(=O)CCCOc1ccc(CCN)cc1OCCCC(=O)OCC [Compound 27]	>120 ppm	>120 ppm	>120 ppm	>120 ppm	>120 ppm
CCC(C)Oc1cc(CCN)cc(OC(C)CC)c1OC(C)CC (centres unmarked) [Compound 83]	>120 ppm	120 ppm	30 ppm	>120 ppm	>120 ppm
